From patent US20220409617A1, “Drug Formulations and Methods of Treatment for Metabolic Disorders” (The Regents of the University of California, priority 2019, published 2022)

How the values were obtained:
[1] = system: hepatic mitochondria; experiment: Hepatic mitochondrial morphology (NADH/NADPH autofluorescence) after acute treatment; format: in vivo, mouse
Description: To determine whether sphingolipid-like compound 893 also protects from ceramide-induced mitochondrial fragmentation in vivo, a cohort of mice with diet-induced obesity was analyzed. Male, C57BL/6J mice were fed a 45% kcal from fat rodent diet (HFD) or a standard chow diet (10% kcal from fat) for 22-26 weeks. Mitochondrial morphology was compared in freshly resected livers from vehicle- or sphingolipid-like compound 893-treated mice using NADH/NADPH autofluorescence and confocal microscopy. When evaluating mitochondrial morphology, light microscopy has two, significant advantages over electron microscopy: 1) the 3D architecture of the mitochondrial network is readily apparent, and 2) quantitative measurements of mitochondrial shape can be made in a large number of cells in an automated and unbiased manner using image analysis software (FIG. 11). […]
MEFs were washed twice with PBS and fixed with 4% paraformaldehyde for 10 min at RT. […] NADH/NADPH autofluorescence was detected with 740 nm excitation and 450±50 nm detectors using a Mai Tai two-photon laser. Fluorescence microscopy was performed on a Zeiss LSM 780 confocal using a 63× oil objective with a […] numerical aperture (NA) or using a Nikon TE2000-S inverted epifluorescence microscope with a 100× oil objective (1.3 NA) and a Photometrics CoolSNAP ES2 monochrome CCD camera. […]

[2] = system: leptin; experiment: Serum leptin ELISA in HFD-fed mice; format: in vivo, mouse
Description: Further assessment was performed to determine the level of leptin circulating in HFD-fed mice treated with sphingolipid-like compound 893. Mice were fed a HFD for 4 weeks and randomly distributed into two groups with the same mean weight. Mice were gavaged with water (n=7) or 120 mg/kg 893 (n=8) at ZT8.5. Blood was collected from the saphenous vein between ZT15-18 in pairs of treated vs. untreated animals and leptin levels were measured in serum using ELISA (CrystalChem, cat #90030).

Compound: CCCCCCCCc1ccc([C@H]2CCN[C@@H]2CO)cc1.Cl [compound 893]
- Hepatic mitochondrial morphology (aspect ratio, roundness), HFD-fed mice ([1]; single oral dose 120 mg/kg at ZT8.5, HFD-fed, treatment-naive mice): increasing their tubularity (increased aspect ratio) and reducing their roundness to match controls fed standard chow
- Hepatic mitochondrial morphology, lean SD-fed mice ([1]; single oral dose 120 mg/kg, mice consuming the SD): did not significantly alter hepatic mitochondrial morphology
- Leptin production by adipocytes ([2]; in vivo): reduced leptin production by adipocytes in vivo
- Circulating leptin levels (serum) ([2]; mice on HFD 4 weeks, 120 mg/kg at ZT8.5, blood at ZT15-18): lowered levels of circulating leptin
